# Source: patent US11878013B2, “Isoquinoline derivative, preparing method thereof, and pharmaceutical composition for preventing or treating autophagy related diseases containing the same as an active ingredient” (Korea Research Institute of Chemical Technology, priority 2021, dated 2024)
# What was measured:
# [1] = tested on: zebrafish; test: Fatty liver inhibitory effect in tamoxifen-treated zebrafish juvenile fish (LipidGreen2 staining); format: in vivo
# Method: In order to evaluate the inhibitory efficacy of the novel isoquinoline derivative of the present invention on fatty liver, an experiment was performed as follows using LipidGreen2 staining reagent capable of staining lipid droplets.
# Particularly, the zebrafish used in this Experimental Example were juvenile fish 5 days after fertilization. Healthy juvenile fish were placed in a 24-well plate (10/well), and 1 ml of egg water was added to each well of the plate. As a negative control that could not regulate fatty liver, DMSO diluted at 0.4% was exposed to juvenile fish, and tamoxifen (Sigma-Aldrich, T5648) diluted at 5 μM was exposed to juvenile fish to control […] fatty liver. In order to investigate the fatty liver inhibitory efficacy of the compound of Example 1 of the present invention, the compound (0.5 μM, 1 μM and 5 μM) was mixed with 5 μM tamoxifen and exposed to juvenile fish (final volume of each well: 2 ml). The 24-well plate containing the compound was wrapped in foil to block light, and then incubated in a 28° C. incubator for 22 hours. The plate was washed with egg water 3 times for 5 minutes to remove the compound from each well. For fat-specific staining, LipidGreen2 diluted at 5 μM was exposed to juvenile fish for 30 minutes, and then washed 3 times with egg water for 5 minutes. To evaluate the fatty liver of zebrafish juvenile fish, the developing embryo was anesthetized with Tricaine (4 g/L), and then photographed on 3% methyl cellulose. As the equipment for photographing the developing embryo, a LEICA MZ10F fluorescence microscope, a LEICA DFC425 camera, and Leica Application Suite software (v4.5) were used. For the fluorescence wavelength, a GFP Plants filter set (Excitation 470/40 nm, Emission 525/50 nm) was used. To quantify the liver area and the degree of fat staining of juvenile fish on the image, the area and the fluorescence intensity of the liver part of each image were quantified using ImageJ 1.50i software (National Institutes of Health, USA) and converted into heatmap images.
# [2] = tested on: VERO, HFL-1, L929, NIH 3T3, CHO-K1 and HMV-II cell lines; test: Non-selective general cytotoxicity test; format: cell-based; conditions: all cell lines, 24 hours
# Method: In this experiment, the cell lines derived from different species, VERO (African green monkey kidney cell line), HFL-1 (human embryonic lung cell line), L929 (mouse fibroblast cell line), NIH 3T3 (mouse embryonic fibroblast cell line), CHO-K1 (Chinese hamster ovary cell line) and HMV-II (human malignant melanoma cell line), were used.
# Particularly, VERO, HFL-1, L929 and NIH 3T3 cell lines were cultured in DMEM, CHO-K1 was cultured in RPMI1640 medium, and HMV-II was cultured in DME/F-12 medium. 10% FBS (Fetal Bovine Serum) and 100 μg/mL of antibiotics were added to each medium. The cells were acclimatized and cultured in a humidified 37° C. 5% CO2 incubator, washed with PBS (phosphate buffer solution) at the time of growth that occupies 70-80% of the culture dish every 2-3 days, and then subcultured by treating with Trypsin-EDTA (Gibco, USA).
# The cells used in this Experimental Example were aliquoted into a 96-well culture plate at the density of 15,000-25,000 cells/well, and then acclimatized and cultured in a humidified 37° C. […] The cell viability was measured according to the standard method using a Cyto XTM cell viability assay kit ([…]). […] 5% CO2 incubator, followed by measuring the absorbance at 450 nm. The survival rate was measured by calculating the ratio of the absorbance changed compared to the absorbance measured in the group treated with DMSO alone.
# [3] = target: T1, hERG channel protein (Homo sapiens, UniProt Q12809); test: hERG patch clamp test in HEK-293 cells overexpressing hERG; format: cell-based; conditions: at 10 μM
# T1 construct: expressed in transfected cells; host or cells: HEK-293
# T1 sequence (Q12809 whole entry): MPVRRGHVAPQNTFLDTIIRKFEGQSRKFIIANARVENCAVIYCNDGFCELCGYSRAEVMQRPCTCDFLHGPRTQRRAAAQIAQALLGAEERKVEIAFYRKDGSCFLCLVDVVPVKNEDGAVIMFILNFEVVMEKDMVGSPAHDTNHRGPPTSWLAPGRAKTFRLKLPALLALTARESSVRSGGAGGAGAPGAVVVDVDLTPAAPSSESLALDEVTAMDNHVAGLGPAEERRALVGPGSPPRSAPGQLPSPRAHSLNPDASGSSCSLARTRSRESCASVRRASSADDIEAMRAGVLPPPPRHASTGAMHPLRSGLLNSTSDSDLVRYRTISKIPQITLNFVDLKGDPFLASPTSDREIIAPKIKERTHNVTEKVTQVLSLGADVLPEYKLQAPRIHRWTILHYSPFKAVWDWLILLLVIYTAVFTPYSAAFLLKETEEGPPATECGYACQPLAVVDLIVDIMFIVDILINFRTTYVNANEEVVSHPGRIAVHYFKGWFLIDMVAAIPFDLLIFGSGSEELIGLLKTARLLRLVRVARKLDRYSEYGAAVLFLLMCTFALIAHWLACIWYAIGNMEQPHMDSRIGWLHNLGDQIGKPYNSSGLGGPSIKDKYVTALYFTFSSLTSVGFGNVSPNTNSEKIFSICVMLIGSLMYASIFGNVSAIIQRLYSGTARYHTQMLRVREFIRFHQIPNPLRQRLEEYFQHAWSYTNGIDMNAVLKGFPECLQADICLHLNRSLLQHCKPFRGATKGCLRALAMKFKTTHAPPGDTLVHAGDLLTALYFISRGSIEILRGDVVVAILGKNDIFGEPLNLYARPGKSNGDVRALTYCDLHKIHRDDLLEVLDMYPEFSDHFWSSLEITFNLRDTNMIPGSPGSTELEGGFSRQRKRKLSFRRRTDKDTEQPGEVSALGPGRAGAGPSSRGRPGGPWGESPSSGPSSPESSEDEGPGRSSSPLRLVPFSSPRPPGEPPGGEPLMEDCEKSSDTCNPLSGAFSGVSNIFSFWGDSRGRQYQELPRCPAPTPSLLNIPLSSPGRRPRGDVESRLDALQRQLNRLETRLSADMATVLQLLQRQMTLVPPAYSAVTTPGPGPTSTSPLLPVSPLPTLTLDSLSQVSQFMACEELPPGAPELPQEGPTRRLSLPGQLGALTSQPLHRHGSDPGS
# Method: In order to evaluate the possibility of inducing cardiotoxicity of the compound of Example 1 of the present invention in vivo, the inhibitory potential to the hERG (human ether-a-go-go related gene) K^+ channel protein, known as a main cause of arrhythmias, was tested.
# Next, in order to evaluate the activity of the hERG channel protein using an electrophysiological method, a patch clamp test was performed. The activity of the hERG channel protein was measured using the HEK-293 cell line overexpressing the hERG channel protein. The cells were acclimatized and cultured in a humidified 37° C. 5% CO2 incubator, washed with PBS (phosphate buffer solution) at the time of growth that occupies 70-80% of the culture dish every 2-3 days, and then subcultured by treating with Trypsin-EDTA. For the test, 2×10^5 cells were aliquoted in a 60 mm cell culture dish, and then cultured in a humidified 5% CO2 incubator for 48 hours. The cultured cells were detached by treating Trypsin-EDTA (Gibco, USA), and the flow of K^+ by the hERG channel protein was measured by applying an automated patch clamp equipment (PatchXpress, Molecular Device).
# [4] = tested on: artificial corneal tissue; test: Ocular toxicity test on artificial cornea (MTT); format: cell-based; conditions: up to 50 μM, the maximum concentration
# Method: In order to evaluate the ocular toxicity that may be induced upon ocular exposure of the compound of Example 1 of the present invention, the following experiment was performed using the cultured artificial cornea.
# The artificial corneal tissue cultured in agarose medium was transferred to a 12-well cell culture plate, to which culture medium was added, followed by culture in a humidified 37° C. 5% CO2 incubator for one day. The medium on the artificial cornea culture surface was eliminated, and 30 μl of the compound of Example 1 of the present invention diluted with PBS was evenly applied to the cornea surface, followed by incubation at room temperature for 30 minutes. The cell surface was washed twice with 10 ml of PBS, and a fresh culture medium was added, followed by incubation in a humidified 37° C. 5% CO2 incubator for 30 minutes. In order to measure the viability of the cornea, the artificial cornea was transferred to a 12-well plate containing 2 ml of MTT solution (1 mg/ml), followed by culture for 3 hours. The stained artificial corneal tissue was taken and transferred to a tube containing 1.5 ml of isopropanol, and then incubated with shaking to decolorize. The solution was centrifuged at 13,000 rpm for 5 minutes, 100 μl of the supernatant was transferred to each well of a 96-well plate, and absorbance was measured at 570 nm.
structure (smiles),measurement,setting,value
"[O-][S+](c1ccc(F)cc1)c1nccc2ccccc12 (stereo not shown) [Example 1, 1-((4-Fluorophenyl)Sulfinyl)Isoquinoline]",fatty liver (LipidGreen2 fat staining),"[1]; 0.5, 1 and 5 μM mixed with 5 μM tamoxifen, 22 hours, juvenile fish 5 days after fertilization",restored to the normal level
same,liver area,"[1]; compound mixed with 5 μM tamoxifen, 22 hours (FIG. 8 top)",maintained at the liver area level of normal juvenile fish
same,fluorescence intensity of liver (LipidGreen2),"[1]; compound mixed with 5 μM tamoxifen, compared to tamoxifen group (FIG. 8 bottom)",decreased to the normal level
same,cytotoxicity,[2]; maximum test concentration of 100 μM,less than 50%
same,toxicity (cell viability),[2]; up to 10 μM,no significant toxicity
same,inhibition of the activity of the hERG channel protein,[3],about 10%
same,survival rate of artificial cornea,[4],no significant decrease of the survival rate
